{
  "source": "patent US12486253B2",
  "about": "“Therapeutics for the degradation of mutant BRAF” (C4 THERAPEUTICS, INC., priority 2021, dated 2025)",
  "key": {"[1]": {"tested_on": "ERK phosphorylation", "experiment": "ERK phosphorylation (pERK) in A375 cells", "format": "cell-based"}, "[2]": {"biological_target": "WT BRAF (Homo sapiens, UniProt P15056)", "sequence (P15056 whole entry)": "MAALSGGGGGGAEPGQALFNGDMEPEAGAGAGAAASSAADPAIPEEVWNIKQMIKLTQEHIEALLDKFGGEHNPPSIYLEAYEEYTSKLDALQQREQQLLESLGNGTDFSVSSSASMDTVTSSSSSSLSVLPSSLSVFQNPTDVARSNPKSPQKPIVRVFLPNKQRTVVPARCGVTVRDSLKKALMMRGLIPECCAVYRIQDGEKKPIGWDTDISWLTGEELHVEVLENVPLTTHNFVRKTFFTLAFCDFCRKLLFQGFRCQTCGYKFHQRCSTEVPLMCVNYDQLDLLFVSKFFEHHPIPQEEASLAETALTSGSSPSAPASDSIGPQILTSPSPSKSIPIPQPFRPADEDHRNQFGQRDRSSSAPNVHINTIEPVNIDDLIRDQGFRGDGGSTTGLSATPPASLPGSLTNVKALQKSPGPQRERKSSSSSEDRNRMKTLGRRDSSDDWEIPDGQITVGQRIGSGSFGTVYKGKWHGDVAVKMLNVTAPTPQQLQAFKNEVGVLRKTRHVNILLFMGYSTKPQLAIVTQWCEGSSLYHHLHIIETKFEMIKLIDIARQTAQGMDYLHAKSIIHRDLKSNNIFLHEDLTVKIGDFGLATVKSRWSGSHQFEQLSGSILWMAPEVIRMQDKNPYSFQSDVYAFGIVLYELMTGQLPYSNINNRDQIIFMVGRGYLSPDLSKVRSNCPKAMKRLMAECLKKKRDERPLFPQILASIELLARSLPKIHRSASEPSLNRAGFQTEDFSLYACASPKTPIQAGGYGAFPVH", "experiment": "Western blot of WT BRAF and pERK levels in HCT-116 cells", "format": "cell-based", "conditions": "HCT-116 cells with endogenous WT BRAF"}, "[3]": {"biological_target": "T1, BRAF class II mutant G469A (Homo sapiens, UniProt P15056, G469A)", "T1 construct": "host or cells: HEK-293T, lentiviral expression", "T1 sequence (P15056 whole entry G469A)": "as the sequence (P15056 whole entry) above, with G469A counted along it", "experiment": "Western blot of engineered HEK-293T cells expressing class II mutant G469A", "format": "cell-based", "conditions": "lentivirus expression"}, "[4]": {"tested_on": "A375 cells", "experiment": "Cellular confluence of A375 cells by live cell imaging", "format": "cell-based", "conditions": "end of the 7-day experiment"}, "[5]": {"tested_on": "A375-NRAS^Q61K cells", "experiment": "CellTiter-Glo growth inhibition assay, A375-NRAS^Q61K cells", "format": "cell-based", "conditions": "96 hr, mean of at least n = 3", "experimental": "A375-NRAS^Q61K cells (harboring BRAF homozygous V600E mutation and NRAS homozygous Q61K mutation) were purchased from ATCC. DMEM Medium (without phenol red and supplemented with L-glutamine) was purchased from Corning (Corning, NY, USA). CellTiter-Glo® 2.0 Assay was purchased from Promega (Madison, WI, USA). Cell culture flasks and 384-well microplates were acquired from VWR (Radnor, PA, USA) or Corning (Corning, NY, USA).\nA375-NRAS^Q61K cell viability was determined based on quantification of ATP using CellTiter-Glo® 2.0 luminescent Assay kit, which signals the presence of metabolically-active cells. Briefly, test compound was added to 384-well plates at a top concentration of 10 μM with 14 points, half log titration in duplicates. A375-NRAS^Q61K cells were seeded into the 384-well plates in DMEM medium containing 10% FBS at a cell density of 250 cells per well. Cells treated in the absence of the test compound were the negative control, normalized to 100% viability, and cells treated in the absence of CellTiter-Glo® 2.0 were the positive control, normalized to 0% viability. A375 cells were incubated at 37° C. with 5% CO2 for 96 hr. CellTiter-Glo reagent was then added to the cells and Luminescence was acquired on EnVision™ Multilabel Reader (PerkinElmer, Santa Clara, CA, USA)."}, "[6]": {"tested_on": "LOXL4", "experiment": "Global proteomics profiling, A375 cells", "format": "cell-based, human", "conditions": "300 nM, 24 hours", "experimental": "(§1) Each cell line was treated in duplicate with either DMSO or Compound 157 (final concentration 300 nM) for 24 hours in an incubator at 37° C. with 5% CO2. After the 24-hour incubation, cells were harvested, washed twice with PBS, and snap frozen in liquid nitrogen. Samples were re-suspended in lysis buffer [8 M urea, 50 mM HEPES (pH 8.5), 50 mM NaCl, 1× protease inhibitor cocktail] and lysed by sonication at 4° C. with 85% amplitude in a pulse setting with 30 seconds on and 30 seconds off for a total sonication time of 5 minutes. Lysates were centrifuged at maximum speed for 10 minutes at 4° C. and the supernatant collected, reduced for 1 hour at room temperature with 5 mM TCEP, and the cysteine residues were then alkylated with 15 mM iodoacetamide (room temperature, in dark, 30 minutes). Protein content was extracted by methanol-chloroform precipitation and subsequent ice-cold acetone washes. Protein pellets were resuspended in 8 M urea, 50 mM HEPES (pH 8.5) buffer and protein concentrations were measured by BCA assay. […]\n(§2) For peptide tandem mass tag (TMT) labeling, 100 μg of peptides per sample was prepared at […] concentration in 200 mM HEPES (pH 8.5), 30% acetonitrile (ACN) and each the specific TMT reagent. […] TMT reporter ion intensities were quantified by extracting the signal-to-noise ratio for each. […]"}, "[7]": {"biological_target": "RAF1 (a.k.a CRAF) (Homo sapiens, UniProt P04049)", "sequence (P04049 whole entry)": "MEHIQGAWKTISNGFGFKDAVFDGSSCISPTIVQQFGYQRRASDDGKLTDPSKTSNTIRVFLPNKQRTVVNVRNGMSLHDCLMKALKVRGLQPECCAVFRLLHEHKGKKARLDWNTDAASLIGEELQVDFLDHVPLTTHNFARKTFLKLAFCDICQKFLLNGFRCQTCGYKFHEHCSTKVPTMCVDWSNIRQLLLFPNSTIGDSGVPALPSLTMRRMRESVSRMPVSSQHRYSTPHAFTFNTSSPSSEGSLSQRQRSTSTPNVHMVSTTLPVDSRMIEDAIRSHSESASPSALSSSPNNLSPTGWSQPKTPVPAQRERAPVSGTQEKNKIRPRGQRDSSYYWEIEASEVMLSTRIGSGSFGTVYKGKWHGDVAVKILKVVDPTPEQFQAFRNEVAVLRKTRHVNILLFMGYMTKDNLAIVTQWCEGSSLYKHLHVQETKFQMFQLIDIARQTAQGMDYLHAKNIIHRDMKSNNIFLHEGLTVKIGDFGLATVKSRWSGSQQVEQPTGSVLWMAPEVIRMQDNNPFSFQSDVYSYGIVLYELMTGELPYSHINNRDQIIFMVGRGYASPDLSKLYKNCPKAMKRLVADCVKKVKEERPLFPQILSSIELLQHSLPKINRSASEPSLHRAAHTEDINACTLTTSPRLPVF", "experiment": "Global proteomics profiling, A375 cells", "format": "cell-based", "design": "endogenous in cells; host or cells: A375 (A8.2)", "conditions": "300 nM, 24 hours", "experimental": "as §1, §2"}},
  "data": [
    {"compound": "CCN(C)S(=O)(=O)Nc1ccc(F)c(Oc2ccc3ncn([C@H]4COC5(CCN(C(=O)CC6(O)CCN(c7cc8c(cc7F)c(N7CCC(=O)NC7=O)nn8C)CC6)CC5)C4)c(=O)c3c2)c1C#N", "note": "[Compound 157, (3R)-3-[6-[2-cyano-3-[[ethyl(methyl)sulfamoyl]amino]-6-fluorophenoxy]-4-oxoquinazolin-3-yl]-8-[2-[1-[3-(2,4-dioxo-1,3-diazinan-1-yl)-5-fluoro-1-methylindazol-6-yl]-4-hydroxypiperidin-4-yl]acetyl]-1-oxa-8-azaspiro[4.5]decane]", "values": [
      {"measurement": "ERK phosphorylation by western blot", "setting": "[1]", "value": "significantly drops off"},
      {"measurement": "WT BRAF levels and phosphorylation of ERK", "setting": "[2]", "value": "minimal impact"},
      {"measurement": "degradation of class II mutant G469A", "setting": "[3]", "value": "capable of degrading"},
      {"measurement": "cellular confluence", "setting": "[4]", "value": "~20", "unit": "%"},
      {"measurement": "GI50", "setting": "[5]", "value": 55, "unit": "nM"},
      {"measurement": "LOXL4 protein level change", "setting": "[6]", "value": "decreased"},
      {"measurement": "RAF1 (CRAF) protein level change", "setting": "[7]", "value": "remain largely unchanged"}
    ]}
  ]
}
